In patent EP4660182A1, “NAV1.7- AND/OR NAV1.8-INHIBITING ARYL PYRIDINE COMPOUNDS, PROCESSES FOR THE PREPARATION THEREOF, COMPOSITIONS, USES, METHODS FOR TREATMENT USING SAME, AND KITS” (Eurofarma Laboratórios S.A., priority 2023, dated 2024):

Assays:
[1] = target: T1, human sodium channels Nav 1.8 (Homo sapiens, UniProt Q9Y5Y9); assay: Automated whole-cell voltage-clamp (ScreenPatch 384P) sodium current block, Nav 1.8; format: cell-based; conditions: CHO cells stably expressing human Nav 1.8; inactivation step -40 mV 8 s, test step 10 mV (TP1A); eight concentrations; exposure at least five minutes; room temperature; read-out: Nav1.8 IC50
T1 construct: expressed in transfected cells
T1 sequence (Q9Y5Y9 whole entry): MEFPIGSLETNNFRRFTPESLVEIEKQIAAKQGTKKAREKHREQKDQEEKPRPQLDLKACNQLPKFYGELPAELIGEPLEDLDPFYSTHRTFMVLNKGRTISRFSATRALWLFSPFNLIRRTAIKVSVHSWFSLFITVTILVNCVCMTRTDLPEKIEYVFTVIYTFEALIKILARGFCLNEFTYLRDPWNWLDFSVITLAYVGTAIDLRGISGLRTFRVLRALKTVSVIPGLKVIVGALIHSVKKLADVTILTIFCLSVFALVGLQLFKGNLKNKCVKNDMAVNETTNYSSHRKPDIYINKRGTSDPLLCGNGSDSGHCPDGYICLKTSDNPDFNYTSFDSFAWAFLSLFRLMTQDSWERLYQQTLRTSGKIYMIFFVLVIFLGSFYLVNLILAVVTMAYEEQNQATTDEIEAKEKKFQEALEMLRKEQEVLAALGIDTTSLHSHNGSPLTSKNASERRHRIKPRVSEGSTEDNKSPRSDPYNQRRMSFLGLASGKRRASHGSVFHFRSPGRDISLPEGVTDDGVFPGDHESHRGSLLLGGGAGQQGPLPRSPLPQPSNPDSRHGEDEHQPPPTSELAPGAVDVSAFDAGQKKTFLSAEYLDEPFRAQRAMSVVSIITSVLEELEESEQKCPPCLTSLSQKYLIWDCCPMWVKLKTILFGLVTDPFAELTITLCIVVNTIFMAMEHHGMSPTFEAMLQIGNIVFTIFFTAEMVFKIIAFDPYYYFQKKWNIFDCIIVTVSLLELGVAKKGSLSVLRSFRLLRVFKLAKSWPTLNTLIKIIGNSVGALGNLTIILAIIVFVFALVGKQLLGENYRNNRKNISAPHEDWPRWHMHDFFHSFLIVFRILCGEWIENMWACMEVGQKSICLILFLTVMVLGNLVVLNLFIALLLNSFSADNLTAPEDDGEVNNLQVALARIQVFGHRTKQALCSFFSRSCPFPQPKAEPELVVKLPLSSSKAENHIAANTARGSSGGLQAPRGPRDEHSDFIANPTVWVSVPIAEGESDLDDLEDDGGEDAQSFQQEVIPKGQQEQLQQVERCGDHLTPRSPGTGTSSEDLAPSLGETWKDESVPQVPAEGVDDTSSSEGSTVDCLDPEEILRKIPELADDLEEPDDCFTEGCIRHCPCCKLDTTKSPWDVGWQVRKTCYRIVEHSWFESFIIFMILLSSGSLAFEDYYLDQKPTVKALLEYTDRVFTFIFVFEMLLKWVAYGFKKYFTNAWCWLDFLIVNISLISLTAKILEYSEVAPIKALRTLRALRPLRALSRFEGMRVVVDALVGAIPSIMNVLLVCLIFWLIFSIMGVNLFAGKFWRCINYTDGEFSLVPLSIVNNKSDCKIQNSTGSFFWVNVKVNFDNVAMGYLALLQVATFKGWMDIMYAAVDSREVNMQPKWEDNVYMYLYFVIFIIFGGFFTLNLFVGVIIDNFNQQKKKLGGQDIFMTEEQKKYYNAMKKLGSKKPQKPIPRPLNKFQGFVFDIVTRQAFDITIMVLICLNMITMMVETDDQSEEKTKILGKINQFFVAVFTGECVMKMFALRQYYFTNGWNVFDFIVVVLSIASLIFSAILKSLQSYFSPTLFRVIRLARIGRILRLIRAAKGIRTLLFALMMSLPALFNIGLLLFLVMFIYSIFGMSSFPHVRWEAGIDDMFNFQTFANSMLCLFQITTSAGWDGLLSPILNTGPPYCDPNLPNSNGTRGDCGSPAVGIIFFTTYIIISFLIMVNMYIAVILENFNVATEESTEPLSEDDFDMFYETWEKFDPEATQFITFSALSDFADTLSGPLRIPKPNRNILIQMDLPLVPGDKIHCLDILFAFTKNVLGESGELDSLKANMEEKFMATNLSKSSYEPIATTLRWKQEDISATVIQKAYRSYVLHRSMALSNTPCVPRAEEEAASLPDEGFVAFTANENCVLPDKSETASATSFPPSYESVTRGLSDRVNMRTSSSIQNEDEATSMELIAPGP
Method: (§1) Biological assays were performed on Chinese hamster ovary (CHO) cells that express human sodium channels Nav 1.8 or Nav 1.7 in a stable manner.
(§2) The experimental protocol voltage-clamp using the whole cell configuration was established on the automated ScreenPatch® 384P platform (SP384PE, Nanion Technologies, Livingston, NJ) and the results were recorded with a Nanion 384-well Patch Clamp chip (NPC) (Nanion Technologies, Livingston, NJ).
(§3) Formula I compounds were diluted in eight concentrations in the extracellular solution composed of saline solution, buffered with HEPES (mM): NaCl, 137; KCl, 4; CaCl2, 3,8; MgCl2, 1; HEPES, 10; Glucose, 10; pH 7.4. The […], 50; CsF, 90; MgCl2, 5; EGTA, 5; HEPES, 10; pH 7.2. The duration of exposure of each compound with cells expressing Nav 1.7 or Nav 1.8 was at least five minutes and the assays were performed at room temperature.
(§4) The measurements of the sodium currents of Nav 1.8 and Nav 1.7 were obtained using the voltage protocol described below.
(§5) A holding voltage of -100 mV was established followed by an inactivation voltage step at -40 mV for 8 seconds, followed by a step of -100 mV for 20 ms, followed by a 20 ms step for 10 mV for Nav 1.8 or 0 mV for Nav 1.7 (TP1A) before returning to the holding voltage of -100 mV.
(§6) The protocol was repeated at a frequency of 0.05 Hz and the amplitude of the current was quantified throughout the recording of the TP1A phase. The variation in the amplitude of the peak current was evaluated according to the formula described below, after exposing the cells expressing the channels to each concentration of the different compounds: % Block = (1−(ITP1A,molecule/ITP1A,basal)×100%, [formula] wherein ITP1A,basal and ITP1A,molecule represent the peaks of sodium current input into TP1A before exposure to the compound and in the presence of the compound, respectively.
(§7) Data were obtained by nonlinear regression (nonlinear least squares) with XLfit for Excel (Microsoft, Redmond, WA).
(§8) The compounds were tested in at least one assay to obtain the value of CI50. For compounds that were tested in two or more assays, the results are described as the means of the CI50 values.

[2] = target: T2, human sodium channels Nav 1.7 (Homo sapiens, UniProt Q15858); assay: Automated whole-cell voltage-clamp (ScreenPatch 384P) sodium current block, Nav 1.7; format: cell-based; conditions: CHO cells stably expressing human Nav 1.7; inactivation step -40 mV 8 s, test step 0 mV (TP1A); eight concentrations; exposure at least five minutes; room temperature; read-out: Nav1.7 IC50
T2 construct: expressed in transfected cells
T2 sequence (Q15858 whole entry): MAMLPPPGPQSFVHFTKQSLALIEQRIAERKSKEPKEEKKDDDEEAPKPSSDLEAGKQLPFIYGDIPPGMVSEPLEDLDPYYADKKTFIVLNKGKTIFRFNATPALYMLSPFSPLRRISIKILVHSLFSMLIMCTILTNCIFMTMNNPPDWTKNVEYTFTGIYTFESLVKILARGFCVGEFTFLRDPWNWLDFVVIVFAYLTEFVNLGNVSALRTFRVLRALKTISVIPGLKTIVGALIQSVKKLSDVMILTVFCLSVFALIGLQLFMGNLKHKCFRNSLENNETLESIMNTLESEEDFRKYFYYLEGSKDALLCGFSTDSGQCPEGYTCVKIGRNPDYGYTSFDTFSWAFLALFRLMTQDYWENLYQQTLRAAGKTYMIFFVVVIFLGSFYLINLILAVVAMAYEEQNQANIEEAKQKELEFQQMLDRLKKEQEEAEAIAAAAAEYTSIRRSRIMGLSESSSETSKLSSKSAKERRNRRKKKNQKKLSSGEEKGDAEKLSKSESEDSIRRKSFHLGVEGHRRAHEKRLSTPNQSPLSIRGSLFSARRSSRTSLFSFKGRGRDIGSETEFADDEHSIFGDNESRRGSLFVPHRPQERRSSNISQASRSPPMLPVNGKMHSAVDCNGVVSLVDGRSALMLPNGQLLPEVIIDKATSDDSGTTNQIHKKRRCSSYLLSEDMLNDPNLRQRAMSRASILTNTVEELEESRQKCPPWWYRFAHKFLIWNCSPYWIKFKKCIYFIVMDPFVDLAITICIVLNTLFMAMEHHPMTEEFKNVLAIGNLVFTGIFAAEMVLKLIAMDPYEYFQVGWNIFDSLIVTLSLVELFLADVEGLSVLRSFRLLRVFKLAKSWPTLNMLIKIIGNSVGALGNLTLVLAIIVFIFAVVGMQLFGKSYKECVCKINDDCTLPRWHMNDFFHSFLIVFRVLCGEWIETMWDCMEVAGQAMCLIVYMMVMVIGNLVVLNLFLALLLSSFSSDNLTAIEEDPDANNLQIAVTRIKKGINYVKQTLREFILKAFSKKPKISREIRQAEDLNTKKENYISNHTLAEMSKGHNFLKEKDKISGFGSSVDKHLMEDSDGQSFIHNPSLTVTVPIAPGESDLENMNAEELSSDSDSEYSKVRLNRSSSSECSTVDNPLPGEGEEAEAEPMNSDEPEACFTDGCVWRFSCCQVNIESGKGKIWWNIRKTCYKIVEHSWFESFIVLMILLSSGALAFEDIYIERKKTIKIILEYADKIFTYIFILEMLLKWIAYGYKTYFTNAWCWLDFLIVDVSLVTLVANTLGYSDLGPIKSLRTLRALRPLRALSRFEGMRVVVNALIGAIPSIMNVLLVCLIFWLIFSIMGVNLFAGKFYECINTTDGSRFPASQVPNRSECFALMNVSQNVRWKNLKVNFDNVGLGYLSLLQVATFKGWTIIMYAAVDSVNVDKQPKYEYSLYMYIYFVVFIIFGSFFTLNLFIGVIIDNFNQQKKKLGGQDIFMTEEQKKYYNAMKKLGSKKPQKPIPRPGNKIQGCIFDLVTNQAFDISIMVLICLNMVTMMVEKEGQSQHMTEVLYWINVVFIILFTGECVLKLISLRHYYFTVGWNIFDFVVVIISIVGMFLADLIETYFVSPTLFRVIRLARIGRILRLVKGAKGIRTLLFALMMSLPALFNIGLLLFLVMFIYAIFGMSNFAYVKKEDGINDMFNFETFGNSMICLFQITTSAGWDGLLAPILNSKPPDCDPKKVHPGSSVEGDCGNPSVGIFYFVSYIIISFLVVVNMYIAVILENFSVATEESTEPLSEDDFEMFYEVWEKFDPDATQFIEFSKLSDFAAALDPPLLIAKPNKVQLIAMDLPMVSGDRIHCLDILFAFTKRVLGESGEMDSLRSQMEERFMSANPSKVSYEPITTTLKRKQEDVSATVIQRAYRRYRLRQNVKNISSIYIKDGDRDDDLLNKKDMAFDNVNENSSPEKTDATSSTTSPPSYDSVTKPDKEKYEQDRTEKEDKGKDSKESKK
Method: as §1, §2, §3, §4, §5, §6, §7, §8

IC50 [1] [nM] | IC50 [2] [nM] | Compound
< 500 | > 1000 | CCOc1ccc(-c2cncc(C(=O)N/N=C/c3cc(N4CCC4)ccc3F)n2)cn1 [Compound 38, (E)-N'-(5-(azetidin-1-yl)-2-fluorobenzylidene)-6-(6-ethoxypyridine-3-yl)pyrazine-2-carbohydrazide]
< 500 | > 1000 | CCOc1ccc(-c2cncc(C(=O)N/N=C/c3cc(OC)cnc3C)n2)cn1 [Compound 27, (E)-6-(6-ethoxypyridine-3-yl)-N'-((5-methoxy-2-methylpyridine-3-yl)methylene)pyrazine-2-carbohydrazide]
< 500 | > 1000 | [2H]C([2H])(C)Oc1ccc(-c2cncc(C(=O)N/N=C/c3cc(OC)cnc3F)n2)cn1 [Compound 169, (E)-6-(6-(ethoxy-1,1-d2)pyridine-3-yl)-N'-((2-fluoro-5-methoxypyridine-3-yl)methylene)pyrazine-2-carbohydrazide]
500 to 1000 | > 1000 | COc1cc(/C=N/NC(=O)c2cncc(-c3ccc(OC(F)F)nc3)n2)c(F)cn1 [Compound 106, (E)-6-(6-(difluoromethoxy)pyridine-3-yl)-N'-((5-fluoro-2-methoxypyridine-4-yl)methylene)pyrazine-2-carbohydrazide]
< 500 | 500 to 1000 | CCOc1ccc(-c2cncc(C(=O)N/N=C/c3cc(OC)c(F)cc3F)n2)cn1 [Compound 3, (E)-N'-(2,4-difluoro-5-methoxybenzylidene)-6-(6-ethoxypyridine-3-yl)pyrazine-2-carbohydrazide]
500 to 1000 | > 1000 | O=C(N/N=C/c1cc(O)cnc1F)c1cncc(-c2ccc(OC(F)F)nc2)n1 [Compound 113, (E)-6-(6-(difluoromethoxy)pyridine-3-yl)-N'-((2-fluoro-5-hydroxypyridine-3-yl)methylene)pyrazine-2-carbohydrazide]
500 to 1000 | > 1000 | CC(O)c1cccc(/C=N/NC(=O)c2cncc(-c3ccc(OC(F)F)nc3)n2)c1 (stereo not shown) [Compound 109, (E)-6-(6-(difluoromethoxy)pyridine-3-yl)-N'-(3-(1-hydroxyethyl)benzylidene) pyrazine-2-carbohydrazide]
< 500 | < 500 | CC(C)Oc1ccc(F)c(/C=N/NC(=O)c2cncc(-c3ccc(OC4CC4)nc3)n2)c1 [Compound 79, (E)-6-(6-cyclopropoxypyridine-3-yl)-N'-(2-fluoro-5-isopropoxybenzylidene) pyrazine-2-carbohydrazide]
> 1000 | > 1000 | COc1cnc(F)c(/C=N/NC(=O)c2cncc(-c3ccc(O)nc3)n2)c1 [Compound 167, (E)-N'-((2-fluoro-5-methoxypyridine-3-yl)methylene)-6-(6-hydroxypyridine-3-yl) pyrazine-2-carbohydrazide]
< 500 | 500 to 1000 | COc1ccc(F)c(/C=N/NC(=O)c2cncc(-c3ccc(OC(F)F)nc3)n2)c1 [Compound 100, (E)-6-(6-(difluoromethoxy)pyridine-3-yl)-N'-(2-fluoro-5-methoxybenzylidene) pyrazine-2-carbohydrazide]
< 500 | > 1000 | [2H]C([2H])([2H])COc1ccc(-c2cncc(C(=O)N/N=C/c3cc(OC([2H])([2H])[2H])cnc3F)n2)cn1 [Compound 173, (E)-6-(6-(ethoxy-2,2,2-d3)pyridine-3-yl)-N'-((2-fluoro-5-(methoxy-d3)pyridine-3-yl)methylene)pyrazine-2-carbohydrazide]
> 1000 | > 1000 | CCOc1ccc(-c2cncc(C(=O)N/N=C/c3cc(CN)ccc3F)n2)cn1 [Compound 13, (E)-N'-(5-(aminomethyl)-2-fluorobenzylidene)-6-(6-ethoxypyridine-3-yl)pyrazine-2-carbohydrazide]

Second part, the compound before the results:

Compound | IC50 [1] [nM] | IC50 [2] [nM]
CCOc1ccc(-c2nc(C(=O)N/N=C/c3cc(OC)cnc3F)cn(C)c2=O)cn1 [Compound 75, (E)-6-(6-ethoxypyridine-3-yl)-N'-((2-fluoro-5-methoxypyridine-3-yl)methylene)-4-methyl-5-oxo-4,5-dihydropyrazine-2-carbohydrazide] | > 1000 | > 1000
CCOc1ccc(-c2cncc(C(=O)N/N=C/c3cc(OC)cnc3F)n2)c(C)n1 [Compound 152, (E)-6-(6-ethoxy-2-methylpyridine-3-yl)-N'-((2-fluoro-5-methoxypyridine-3-yl)methylene)pyrazine-2-carbohydrazide] | < 500 | > 1000
COc1cnc(F)c(/C=N/NC(=O)c2nccc(-c3ccc(OC(F)F)nc3)n2)c1 [Compound 127, (E)-4-(6-(difluoromethoxy)pyridine-3-yl)-N'-((2-fluoro-5-methoxypyridine-3-yl)methylene)pyrimidine-2-carbohydrazide] | 500 to 1000 | > 1000
COc1ccc(F)c(/C=N/NC(=O)c2cnc(O)c(-c3ccc(OC(F)(F)F)nc3)n2)c1 [Compound 98, (E)-N'-(2-fluoro-5-methoxybenzylidene)-5-hydroxy-6-(6-(trifluoromethoxy)pyridine-3-yl)pyrazine-2-carbohydrazide] | > 1000 | > 1000
CC(O)c1ccnc(/C=N/NC(=O)c2cncc(-c3ccc(OC(F)F)nc3)n2)c1 (stereo not shown) [Compound 114, (E)-6-(6-(difluoromethoxy)pyridine-3-yl)-N'-((4-(1-hydroxyethyl)pyridine-2-yl)methylene)pyrazine-2-carbohydrazide] | > 1000 | > 1000
COc1cnc(F)c(/C=N/NC(=O)c2ccnc(-c3ccc(OC(F)F)nc3)n2)c1 [Compound 126, (E)-2-(6-(difluoromethoxy)pyridine-3-yl)-N'-((2-fluoro-5-methoxypyridine-3-yl)methylene) pyrimidine-4-carbohydrazide] | 500 to 1000 | > 1000
CCOc1ccc(-c2cncc(C(=O)N/N=C/c3ccnn3C)n2)cn1 [Compound 51, (E)-6-(6-ethoxypyridine-3-yl)-N'-((1-methyl-1H-pyrazole-5-yl)methylene)pyrazine-2-carbohydrazide] | > 1000 | > 1000
CCOc1ccc(-c2cncc(C(=O)N/N=C/c3cc(OC)cnc3F)c2)cn1 [Compound 74, (E)-6'-ethoxy-N'-((2-fluoro-5-methoxypyridine-3-yl)methylene)-[3,3'-bipyridine]-5-carbohydrazide] | > 1000 | > 1000
COc1ccc(F)c(/C=N/NC(=O)c2cncc(-c3ccc(S(N)(=O)=O)nc3)n2)c1 [Compound 133, (E)-5-(6-(2-(2-fluoro-5-methoxybenzylidene)hydrazine-1-carbonyl)pyrazine-2-yl)pyridine-2-sulfonamide] | > 1000 | > 1000
COc1ccc(F)c(/C=N/NC(=O)c2cncc(-c3ccc(OCC4CN(C)C4)nc3)n2)c1 [Compound 146, (E)-N'-(2-fluoro-5-methoxybenzylidene)-6-(6-((1-methylazetidine-3-yl)methoxy)pyridine-3-yl)pyrazine-2-carbohydrazide] | > 1000 | > 1000
COc1cccc(/C=N/NC(=O)c2cncc(-c3ccc(OC(F)(F)F)nc3)n2)c1 [Compound 90, (E)-N'-(3-methoxybenzylidene)-6-(6-(trifluoromethoxy)pyridine-3-yl)pyrazine-2-carbohydrazide] | < 500 | > 1000
